Some test systems named below: A549 NSCLC; BT-549 breast; CAKI-1 renal; DU-145 prostate; HCT-15 colon; HOP-62 NSCLC; HS 578T breast; MALME-3M melanoma; MDA-MB-435; MDA-N; NCI-H226 lung; NCI-H460 lung; NCI-H522 lung; OVCAR-5 ovarian; SF-295 CNS; SF-539 CNS; SNB-75 CNS; SR leukemia; T-47D breast; K-562 leukemia.
Holding throughout (assay): NCI-60 cell line screen, 48 h

The structures appear in SMILES notation.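 Cells were grown in 96-well plates and exposed to each compound for 48 hours at five concentrations; endpoints were interpolated linearly between bracketing concentrations, or set to the highest concentration if not reached. TGI: total growth inhibition.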

Consider `Cc1ccc(SCC(CF)OC(C)n2cnc3c(Cl)nc(N)nc32)cc1` (centres undefined), for which the TGI in the assay on A549 NSCLC, in the assay with BT-549 breast, with CAKI-1 renal, with DU-145 prostate, in the assay on HCT-15 colon and in the assay on HOP-62 NSCLC was more than 100 µM in each case. The TGI with HS 578T breast, in the assay on MALME-3M melanoma, with MDA-MB-435, with MDA-N, with NCI-H226 lung and with NCI-H460 lung was more than 100 µM throughout. Besides, the TGI in the assay with NCI-H522 lung was 36.1 µM; with OVCAR-5 ovarian, more than 100 µM; in the assay with SF-295 CNS, more than 100 µM; in the assay on SF-539 CNS, more than 100 µM; in the assay with SNB-75 CNS, more than 100 µM; in the assay on SR leukemia, more than 100 µM. The TGI with T-47D breast was more than 100 µM.

Take `COc1ccc(NS(=O)c2c(C)cc(C)cc2C)cc1` (centres undefined): the TGI with A549 NSCLC, with BT-549 breast, in the assay on DU-145 prostate, in the assay with HCT-15 colon, with HOP-62 NSCLC and in the assay on HS 578T breast was more than 100 µM each time. The TGI in the assay on K-562 leukemia was more than 100 µM; in the assay with MALME-3M melanoma, 49 µM; in the assay on MDA-MB-435, more than 100 µM; with MDA-N, more than 100 µM; with NCI-H226 lung it was more than 100 µM; in the assay with NCI-H460 lung, more than 100 µM. The TGI in the assay on NCI-H522 lung is more than 100 µM; with OVCAR-5 ovarian, more than 100 µM; in the assay on SF-295 CNS, more than 100 µM; in the assay on SF-539 CNS it was 53.3 µM; in the assay with SR leukemia it was more than 100 µM; in the assay on T-47D breast it was more than 100 µM.

As to `O=C(O)c1cccc(OCCOc2cccc(C(=O)O)c2[N+](=O)[O-])c1[N+](=O)[O-]`, the TGI in the assay with A549 NSCLC, in the assay with BT-549 breast, with CAKI-1 renal, in the assay on DU-145 prostate, in the assay with HCT-15 colon and with HOP-62 NSCLC was more than 100 µM throughout. Also, the TGI in the assay on HS 578T breast, with MALME-3M melanoma, in the assay with MDA-MB-435, in the assay on MDA-N, in the assay with NCI-H226 lung and in the assay with NCI-H460 lung was more than 100 µM each time. Besides, the TGI with NCI-H522 lung, in the assay on OVCAR-5 ovarian, in the assay on SF-295 CNS, in the assay on SF-539 CNS, in the assay on SNB-75 CNS and in the assay on SR leukemia was more than 100 µM throughout. Besides, the TGI in the assay with T-47D breast was more than 100 µM.

In the case of `CCOC(=O)c1cn(CC)c2ccc3ccsc3c2c1=O`, the TGI with A549 NSCLC, with BT-549 breast, in the assay on CAKI-1 renal, with DU-145 prostate, in the assay on HCT-15 colon and in the assay with HOP-62 NSCLC was more than 100 µM in each case. In addition, the TGI in the assay on HS 578T breast, in the assay on K-562 leukemia, in the assay on MALME-3M melanoma, in the assay with MDA-MB-435, in the assay with MDA-N and in the assay with NCI-H226 lung was more than 100 µM in each case. Also, the TGI in the assay on NCI-H460 lung, with NCI-H522 lung, in the assay with OVCAR-5 ovarian, in the assay with SF-295 CNS, in the assay with SF-539 CNS and with SNB-75 CNS was more than 100 µM each time. Besides, the TGI in the assay with T-47D breast is more than 100 µM.

Regarding `COc1ccccc1NC(=O)C(=O)Cc1cnc2ccccc2n1`, the TGI in the assay on A549 NSCLC, in the assay on BT-549 breast, with CAKI-1 renal, with DU-145 prostate, in the assay on HCT-15 colon and in the assay on HS 578T breast was more than 100 µM throughout. The TGI in the assay with K-562 leukemia, with MDA-MB-435, in the assay with MDA-N, with NCI-H226 lung, with NCI-H460 lung and in the assay on OVCAR-5 ovarian was more than 100 µM throughout. Further, the TGI in the assay with SF-295 CNS, in the assay on SF-539 CNS, with SNB-75 CNS, with SR leukemia and with T-47D breast was more than 100 µM in each case.

On to `O=C(CCc1ccc(O)c(O)c1)NCCc1cc(O)c(O)c(O)c1`, for which the TGI is 54.2 µM with A549 NSCLC; 31.1 µM with BT-549 breast; more than 100 µM with DU-145 prostate; 32.1 µM with HCT-15 colon; more than 100 µM with HOP-62 NSCLC; more than 100 µM in the assay on HS 578T breast. Also, the TGI in the assay with K-562 leukemia is 41.4 µM; with MALME-3M melanoma it was more than 100 µM; in the assay with MDA-MB-435, 31.8 µM; in the assay with MDA-N, 30.6 µM; in the assay with NCI-H226 lung, more than 100 µM; in the assay with NCI-H460 lung, 40.8 µM. The TGI in the assay on NCI-H522 lung is 40.2 µM; in the assay with OVCAR-5 ovarian, more than 100 µM; in the assay on SF-295 CNS it was 33.3 µM; in the assay with SF-539 CNS, more than 100 µM; in the assay with SNB-75 CNS it was more than 100 µM; in the assay with SR leukemia it was more than 100 µM. In the assay with T-47D breast, this molecule yielded a TGI of more than 100 µM.

Turning to `CCOC(=O)Nc1n[nH]nc1Cl`, the TGI with A549 NSCLC, with BT-549 breast, with CAKI-1 renal, with DU-145 prostate, with HCT-15 colon and in the assay on HOP-62 NSCLC was more than 100 µM in each case. The TGI in the assay with HS 578T breast, in the assay on K-562 leukemia, in the assay on MALME-3M melanoma, in the assay with MDA-MB-435, in the assay on MDA-N and in the assay on NCI-H226 lung was more than 100 µM throughout. Further, the TGI with NCI-H460 lung, in the assay on NCI-H522 lung, in the assay on OVCAR-5 ovarian, with SF-539 CNS, with SNB-75 CNS and in the assay on T-47D breast was more than 100 µM each time.

The record behind these values is PubChem BioAssay (NCI).
